Key:
TF-1 cells = assay: cell proliferation assay using TF-1 cells (tritiated thymidine incorporation); format: cell-based, human; conditions: 72 hours at 37° C., tritiated thymidine for the final four hours
Protocol: The potency of the purified recombinant fusion protein was evaluated in a cell proliferation assay using TF-1 cells. TF-1 cells are a continuous cell line derived from human erythroid leukemia cells, and are dependent on IL-3 or GM-CSF for growth. TF-1 cells were maintained in medium containing GM-CSF. Prior to being used in an assay, the cells were washed free of GM-CSF, and resuspended to a concentration of 5×10^4 cells/ml in assay medium (Iscove's Modification of Dulbecco's Medium). The suspended cells were added to the wells of a 96-well microtiter plate containing dilutions of the recombinant fusion protein preparation, positive controls, or negative controls. The cells were incubated at 37° C. for 72 hours; proliferation was measured by adding tritiated thymidine for the final four hours of the incubation. The cells were harvested onto glass fiber filters, and the amount of radioactivity incorporated was determined by scintillation counting.

GM-CSF receptor = target: T1, GM-CSF receptor (Homo sapiens, UniProt P15509+P32927); assay: binding affinity for GM-CSF receptor (as described by Park et al.)
T1 construct: endogenous in cells
T1 sequence (P15509 23-400): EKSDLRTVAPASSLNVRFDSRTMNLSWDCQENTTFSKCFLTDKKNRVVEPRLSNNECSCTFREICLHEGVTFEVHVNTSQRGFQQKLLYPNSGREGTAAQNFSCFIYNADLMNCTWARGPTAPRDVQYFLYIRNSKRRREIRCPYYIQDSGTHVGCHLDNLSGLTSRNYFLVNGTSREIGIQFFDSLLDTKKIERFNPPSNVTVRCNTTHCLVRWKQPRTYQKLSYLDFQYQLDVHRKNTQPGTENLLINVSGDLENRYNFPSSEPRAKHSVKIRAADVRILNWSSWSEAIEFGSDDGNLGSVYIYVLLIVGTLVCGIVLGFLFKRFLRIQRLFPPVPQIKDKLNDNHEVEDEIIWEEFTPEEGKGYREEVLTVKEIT
T1 sequence (P32927 17-897): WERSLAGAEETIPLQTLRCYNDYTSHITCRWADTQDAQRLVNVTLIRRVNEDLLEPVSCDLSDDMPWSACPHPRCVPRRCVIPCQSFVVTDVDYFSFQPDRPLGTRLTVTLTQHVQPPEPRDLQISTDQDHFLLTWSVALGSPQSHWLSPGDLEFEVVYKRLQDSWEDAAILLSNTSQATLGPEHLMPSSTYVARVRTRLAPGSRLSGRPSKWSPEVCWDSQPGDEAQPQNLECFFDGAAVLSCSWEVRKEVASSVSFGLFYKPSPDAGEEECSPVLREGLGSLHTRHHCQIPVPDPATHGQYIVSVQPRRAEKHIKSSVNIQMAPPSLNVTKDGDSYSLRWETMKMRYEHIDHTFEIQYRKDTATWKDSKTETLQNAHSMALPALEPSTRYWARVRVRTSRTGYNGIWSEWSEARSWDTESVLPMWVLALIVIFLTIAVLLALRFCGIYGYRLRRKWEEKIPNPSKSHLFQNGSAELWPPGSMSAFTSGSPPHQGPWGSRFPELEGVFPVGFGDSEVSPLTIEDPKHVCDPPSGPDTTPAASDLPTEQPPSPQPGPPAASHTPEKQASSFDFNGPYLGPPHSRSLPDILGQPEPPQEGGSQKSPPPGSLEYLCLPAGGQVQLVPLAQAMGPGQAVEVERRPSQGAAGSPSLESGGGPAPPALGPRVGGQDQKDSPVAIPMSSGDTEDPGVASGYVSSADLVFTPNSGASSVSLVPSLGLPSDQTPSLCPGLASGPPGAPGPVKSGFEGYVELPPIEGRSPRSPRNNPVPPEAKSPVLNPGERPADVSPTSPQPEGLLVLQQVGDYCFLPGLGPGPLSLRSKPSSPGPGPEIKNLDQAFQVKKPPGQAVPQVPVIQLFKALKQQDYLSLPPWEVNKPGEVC
Protocol: (§1) The binding affinity of the recombinant fusion protein for receptors for both GM-CSF and IL-3 were determined substantially as described by Park et al., J. Biol. Chem. 264:5420; 1989, and Park et al., Blood 74:56; 1989.

IL-3 receptor = target: T2, IL-3 receptor (Homo sapiens, UniProt P26951+P32927); assay: binding affinity for IL-3 receptor (as described by Park et al.)
T2 construct: endogenous in cells
T2 sequence (P26951 19-378): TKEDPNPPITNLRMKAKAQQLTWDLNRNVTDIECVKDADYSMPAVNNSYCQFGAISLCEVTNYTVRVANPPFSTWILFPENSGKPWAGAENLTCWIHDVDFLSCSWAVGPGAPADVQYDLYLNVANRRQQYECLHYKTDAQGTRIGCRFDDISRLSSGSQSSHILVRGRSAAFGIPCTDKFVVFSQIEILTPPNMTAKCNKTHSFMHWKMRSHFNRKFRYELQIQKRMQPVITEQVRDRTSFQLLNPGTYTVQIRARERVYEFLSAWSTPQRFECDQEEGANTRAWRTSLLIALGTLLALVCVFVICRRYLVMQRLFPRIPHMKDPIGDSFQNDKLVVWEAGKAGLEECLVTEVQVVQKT
T2 sequence (P32927 17-897): T1 sequence (P32927 17-897)
Protocol: as §1

binding affinity for GM-CSF receptor (GM-CSF receptor): 1e+10 M⁻¹
binding affinity for IL-3 receptor (IL-3 receptor): 2.2e+10 M⁻¹
Substance: huGM-CSF[Leu^23 Asp^27 Glu^39 ]/Gly4 SerGly5 Ser/hulL-3[Pro^8 Asp^15 Asp^70 ] [recombinant fusion protein]
potency (a unit is the amount of recombinant fusion protein that induces half-maximal proliferation in the TF-1 bioassay) (TF-1 cells): 2.1×10^8 U/mg

Reference: patent US5463029A, “Purification of fusion proteins comprising GM-CSF and IL-3” (Immunex Corporation, priority 1992, dated 1995)
